The test system of experiment [1] is Eμ-myc lymphomas. In words: In vitro cell death analysis (propidium iodide staining, loss of MOMP). Format: cell-based, mouse. As to the method: (§1) Three different primary Eμ-myc lymphomas overexpressing Bcl-2 and control vector-transduced Eμ-myc cells were tested for sensitivity to the histone deacetylase inhibitors (HDACi) oxamflatin and romidepsin.
(§2) The primary function of prosurvival Bcl-2 proteins is to inhibit the activity of Bak and Bax proteins and thereby protect the mitochondrial membrane from damage (Cory et al., Nat. Rev. Cancer 2:647-656, 2002). To determine if the induction of apoptosis mediated by romidepsin in 4242Eμ-myc/Bcl-2 and 229Eμ-myc/Bcl-2 lymphomas was via perturbation of the mitochondrial membrane or through some other mechanism, HDACi-induced mitochondrial outer membrane permeabilization (MOMP) was quantitated by staining with tetramethylrhodamine ethyl ester (Molecular Probes).
(§3) […] Viability of cells as measured by trypan blue exclusion assay, propidium iodide uptake, Annexin V staining, cell cycle analysis, or tetramethylrhodamine ethyl ester staining were done as described (Lindemann et al., Proc. Nat. Acad. Sci. USA 104:8071-8078, 2007).

In the next experiment the test system is Eμ-myc/Bcl-2 lymphomas. Described as above. Format: cell-based, mouse. The following applies: 24-h dose-response assay; Bcl-2 overexpressing. As to the method: as §1, §2, §3
Experiment [2] relates to 226Eμ-myc/Bcl-2 lymphomas. In words: In vitro cell death analysis, time course. Format: cell-based, mouse. The following applies: 3.0 nmol/L; up to 72 h.
Experiment [3] relates to 102Eμ-myc/Bcl-2 lymphomas. In words: In vitro cell death analysis, time course. The following applies: 3.0 nmol/L; up to 72 h. It counts as cell-based, mouse.
The test system of experiment [4] is acetylated histones H3 and H4. In words: Western blot analysis of histone acetylation status. The following applies: for histone acetylation: 3.0 nmol/L, 2, 8, 24 h. It counts as cell-based, mouse. As to the method:
Eμ-myc lymphoma cells were lysed in lysis buffer [0.15 mol/L NaCl, 10 mmol/L Tris-HCl (pH 7.4), 5 μmol/L EDTA, 1% Triton X-100] supplemented with protease inhibitors (leupeptin, pepstatin, and phenylmethylsulfonyl fluoride; Sigma-Aldrich) as described previously (Lindemann et al., Proc. Nat. Acad. Sci. USA 104:8071-8078, 2007). Proteins (30-50 μg) were separated on 10% or 15% SDS polyacrylamide gels electroblotted onto Immobilon-P […] membranes (Millipore). Membranes were incubated with the following antibodies: anti-mouse Bcl-2 (BD PharMingen), anti-mouse Bcl-XL (BD PharMingen), anti-mouse Bcl-w (Chemicon Australia), anti-mouse Mcl-1 (Rockland), anti-mouse A1 (Sapphire Biosciences), anti-Flag tag (Sigma-Aldrich), anti-acetylated histone H3 and antiacetylated histone H4 (Upstate Biosystems), anti-β actin (Sigma-Aldrich), and anti-tubulin (Sigma-Aldrich) overnight at 4° C. followed by subsequent incubation with horseradish peroxidase-conjugated secondary antibodies (DAKO) Immunoreactive bands were visualized by enhanced chemiluminescence (Amersham).

Experiment [5] relates to 102Eμ-myc/Bcl-2 lymphomas. In words: In vivo therapy assay (Kaplan-Meier survival). On the set-up: species or system C57BL/6 mice. The following applies: 5.6 mg/kg i.v. every 4 d, four doses. The protocol: (§4) FIG. 4. […] C57BL/6 mice (10 mice per group) bearing (FIG. 4A) 4242Eμ-myc, (FIG. 4B) 229Eμ-myc, (FIG. 4C) 226Eμ-myc, (FIG. 4D) 102Eμ-myc, (FIG. 4E) 4242Eμ-myc/Bcl-2, (FIG. 4F) 229Eμmyc/Bcl-2, (FIG. 4G) 226Eμ-myc/Bcl-2, and (FIG. 4H) 102Eμ-myc/Bcl-2, lymphomas were treated with romidepsin or vehicle. Therapy commenced after WBC counts reached ≧13×10^3/μL. Therapy consisted of either 5.6 mg/kg romidepsin (injected i.v. every 4 d for a total of four doses) or vehicle.
(§5) For therapy experiments, Eμ-myc lymphomas were transplanted into C57BL/6 mice and treatment with romidepsin or vehicle commenced when WBC counts in the peripheral blood reached a pathologic threshold (>13×10^3/μL).
(§6) For in vivo apoptosis assays, C57BL/6 mice were injected with Eμ-myc lymphomas (5×10^5 cells per animal) and after 10 to 15 days on which lymph nodes became well-palpable romidepsin (5.6 mg/kg) was administered i.v. After the indicated time points, mice were sacrificed and cells were harvested from brachial lymph nodes for fluorescence-activated cell sorting-based assays to measure apoptotic signaling (Lindemann et al., Proc. Nat. Acad. Sci. USA 104:8071-8078, 2007). To assess therapeutic efficacy of romidepsin, C57BL/6 mice were injected with Eμ-myc lymphomas of the indicated genotypes i.v. (5×10^5 cells per animal). Peripheral WBC counts were then monitored until they exceeded 13×10^3/μL (Sysmex Hematology Analyzer K-1000) and romidepsin was administered at 5.6 mg/kg i.v. once every 4 days for a total of four injections. […] Mice in the control cohort received the corresponding amount of vehicle. Cohorts consisted of 8 to 11 mice each, 2 to 3 independently derived lymphomas per genotype. Peripheral WBC counts and body weights were recorded weekly. On signs of major distress or when lymphomas were relapsing as indicated by enlarged brachioaxial lymph nodes, mice were euthanized and a necropsy was done. For analysis of therapeutic efficacy, tumor-induced mortality “events” were recorded. Kaplan-Meier analysis was done and comparisons made using the log-rank (Mantel-Cox) test (MedCalc software version 8.0.2.0).

The test system of the next experiment is 102Eμmyc lymphomas. In words: In vivo therapy assay (Kaplan-Meier survival). The following applies: 5.6 mg/kg i.v. every 4 d, four doses; vehicle 14 d; P<0.0001. The arrangement: species or system C57BL/6 mice. The protocol:
as §4, §5, §6

Another experiment has as its system 226Eμ-myc lymphomas. In words: In vivo therapy assay (Kaplan-Meier survival). The following applies: 5.6 mg/kg i.v. every 4 d, four doses; vehicle 15 d; P<0.0001. The arrangement: species or system C57BL/6 mice. The protocol: as §4, §5, §6
In experiment [6] the test system is 226Eμ-myc/Bcl-2 lymphomas. In words: In vivo therapy assay (Kaplan-Meier survival). On the set-up: species or system C57BL/6 mice. The following applies: 5.6 mg/kg i.v. every 4 d, four doses. The protocol:
as §4, §5, §6

The test system of another experiment is 229Eμ-myc lymphomas. In words: In vivo therapy assay (Kaplan-Meier survival). The following applies: 5.6 mg/kg i.v. every 4 d, four doses; vehicle 20 days; P<0.0001. On the set-up: species or system C57BL/6 mice. As to the method:
as §4, §5, §6

Experiment [7] concerns 229Eμ-myc/Bcl-2 lymphomas. In words: In vivo therapy assay (Kaplan-Meier survival). On the set-up: species or system C57BL/6 mice. The following applies: 5.6 mg/kg i.v. every 4 d, four doses. As to the method:
as §4, §5, §6

The next experiment deals with 4242Eμ-myc lymphomas. In words: In vivo therapy assay (Kaplan-Meier survival). On the set-up: species or system C57BL/6 mice. The following applies: 5.6 mg/kg i.v. every 4 d, four doses; vehicle 19 d; P<0.0003. As to the method: as §4, §5, §6
Experiment [8] has as its system 4242Eμ-myc/Bcl-2 lymphomas. In words: In vivo therapy assay (Kaplan-Meier survival). The following applies: 5.6 mg/kg i.v. every 4 d, four doses. On the set-up: species or system C57BL/6 mice. As to the method:
as §4, §5, §6

In experiment [9] the test system is Eμ-myc lymphomas. In words: In vivo therapy assay (survival). On the set-up: species or system C57BL/6 mice. The following applies: 5.6 mg/kg i.v. every 4 d, four doses. As to the method:
as §5
For in vivo apoptosis assays, C57BL/6 mice were injected with Eμ-myc lymphomas (5×10^5 cells per animal) and after 10 to 15 days on which lymph nodes became well-palpable romidepsin (5.6 mg/kg) was administered i.v. After the indicated time points, mice were sacrificed and cells were harvested from brachial lymph nodes for fluorescence-activated cell sorting-based assays to measure apoptotic signaling (Lindemann et al., Proc. Nat. Acad. Sci. USA 104:8071-8078, 2007). To assess therapeutic efficacy of romidepsin, C57BL/6 mice were injected with Eμ-myc lymphomas of the indicated genotypes i.v. (5×10^5 cells per animal). Peripheral WBC counts were then monitored until they exceeded 13×10^3/μL (Sysmex Hematology Analyzer K-1000) and romidepsin was administered at 5.6 mg/kg i.v. once every 4 days for a total of four injections. […] Mice in the control cohort received the corresponding amount of vehicle. Cohorts consisted of 8 to 11 mice each, 2 to 3 independently derived lymphomas per genotype. Peripheral WBC counts and body weights were recorded weekly. […] For analysis of therapeutic efficacy, tumor-induced mortality “events” were recorded. […]

Values joined by “and” are separate entries in the source; they are usually repeats but may differ in a detail not shown here. Identical values can stand only once.

For the substance “(1S,4S,10S,16E,21R)-7-[(2Z)-ethylidene]-4,21-diisopropyl-2-oxa-12,13-dithia-5,8,20,23-tetraazabicyclo[8.7.6]tricos-16-ene-3,6,9,19,22-pentanone [Romidepsin]”, the “cell killing (outer cell membrane damage, loss of mitochondrial membrane potential)” value in the experiment with Eμ-myc lymphomas [1] (24-h dose-response assay) is “could effectively kill”; in the experiment with Eμ-myc/Bcl-2 lymphomas it was “but not Eμ-myc/Bcl-2 lymphomas”. Besides, in the experiment with Eμ-myc lymphomas [1] (24-h treatment), the “concentration of HDACi required to kill ˜70% of Eμ-myc lymphomas following 24-h treatment” value is 3.0 nmol/L and 3 nmol/L. Further, the “cell killing in time course” value in [2] and in experiment [3] was “remained relatively insensitive” throughout. The histone acetylation entry in experiment [4] (226Eμ-myc/Bcl-2 lymphomas) and in [4] (4242Eμ-myc/Bcl-2 lymphomas) was “equivalent increase in histone acetylation” each time. Moreover, the “acetylation of histones H3 and H4” value in [4] (4242Eμ-myc lymphomas, 3.0 nmol/L romidepsin, 0.1 mmol/L oxamflatin, 24-h time course) is “induced equivalent acetylation of histones H3 and H4”. The “therapeutic benefit (survival)” value in experiment [5] and in experiment [6] was “little or no therapeutic benefit” throughout. Further, the median survival in [5] (vehicle 11 d, P<0.07) stood at 14.5 days; with 102Eμmyc lymphomas, 22 days; with 226Eμ-myc lymphomas it was 19.5 days; in [6] (vehicle 16 d, P=0.86) it was 16 days; in the experiment with 229Eμ-myc lymphomas, 30 days; in [7] (vehicle 18 d, P<0.0001) it was 30 days. For the same substance, the median survival is 28 days in the experiment on 4242Eμ-myc lymphomas and 22.5 days in experiment [8] (vehicle 12 d, P<0.0001). For the same substance, the results for the “survival of mice compared with vehicle-treated mice” value (in experiment [7]; in [8]; in the experiment on Eμ-myc lymphomas [9]) were “significantly extended the survival”, “significantly extended the survival” and “significantly extended”, respectively.

The record behind these values is patent US20110269699A1, “CANCER THERAPY” (priority 2008, published 2011).
